Values quoted from earlier work as cited in US20100280071A1, “BENZIMIDAZOLES WHICH HAVE ACTIVITY AT M1 RECEPTOR AND THEIR USES IN MEDICINE” (priority 2006, published 2010).

How the values were obtained:
[1] = tested on: mice
[2] = tested on: c-fos expression; details: prefrontal cortex, nucleus accumbens, striatum; rats
[3] = tested on: unilateral 6-OH-DA lesioned rats
[4] = tested on: monkeys
[5] = tested on: A10 and A9 dopamine cells; details: A10 versus A9 cells
[6] = in vivo
[7] = tested on: Alzheimer's patients
[8] = tested on: rats

EPS liability [4]: without EPS liability
SMILES: CCCCCCOc1nsnc1C1=CCCN(C)C1 [xanomeline]
effect on apomorphine induced climbing [1]: reverses | c-fos expression [2]: induces c-fos expression in prefrontal cortex and nucleus accumbens, but not in striatum | effect on dopamine agonist driven turning [3]: reverses | effect on amphetamine-induced motor unrest [4]: reverses | dopamine cell firing [5]: inhibit A10, but not A9 | conditioned avoidance [6]: inhibit | psychotic symptoms such as suspiciousness, hallucinations and delusions ([7]; Alzheimer's patients): reduce psychotic symptoms | side effects ([7]; attributed to relatively non-selective nature of the compound): dose-limiting peripheral cholinergic side effects | effect on amphetamine induced locomotion [8]: reverses
